Assay [1] deals with T1, ELIC A244T mutant (Dickeya chrysanthemi, UniProt P0C7B7, A243T).
T1 construct: DNA encoding ELIC and a T7 promoter was inserted into the pCMV-mGFP Cterm S11 NeoKan (Theranostech) vector; expressed in transfected cells; host or cells: Xenopus laevis oocytes (cRNA injection)
The assay is described as follows: Two-electrode voltage clamp of A244T (13′) ELIC mutant in Xenopus laevis oocytes. Format: cell-based, Erwinia chrysanthemi. From the text: (§1) To establish the functional relevance of the identified isoflurane-binding sites, we made site-directed mutations, one at a time, at positions 6′ (T237A) and 13′ (A244T). Subsequently, we expressed these mutants in Xenopus laevis oocytes and measured their functional responses to isoflurane (Fig. 3). […] However, these mutant channels, especially T237A, are much less sensitive to isoflurane inhibition than the WT ELIC. […] The functional consequences of these mutations are associated with changes in the hydrophobicity profile and pore radii near positions 6′ and 13′ (Supplementary Fig. 2). It should be noted that the side chains of the hydrophobic residue at the 9′ position are involved in both of the isoflurane-binding sites (Fig. 2c). The fact that the isoflurane inhibition curve shifts an order of magnitude to the right in the T237A mutant indicates the importance of amphipathic interactions at position 6′ for isoflurane inhibition.
Figure 3 Functional evidence of isoflurane binding to the pore. (a) Representative current traces for isoflurane inhibition of WT and two mutants: T237(6′)A; and A244(13′)T. The scale bars are 0.1 μA (vertical) and 30s (horizontal). (b) Agonist propylamine (PPA) concentration-response curves for WT and two mutants indicated in (a). The data were normalized to the maximum current and fit to the Hill equation (solid lines, n ≥ 5). (c) Isoflurane inhibition of WT and the two mutants indicated in (a). The data were normalized to the current at EC20 in the absence of isoflurane and fit to the Hill equation (solid lines, n ≥ 6). The data are reported as the mean ± SEM and error bars less than the symbol size are not visible.
Site-directed mutagenesis of ELIC was introduced with the QuickChange Lightning Kit (Agilent). DNA encoding ELIC and a T7 promoter was inserted into the pCMV-mGFP Cterm S11 NeoKan (Theranostech) vector. […]

For assay [2], the system named is α7 nAChR. More on the design: method as in ref 12 (a number printed in a supplementary file, which may have a reference list of its own: not looked up in the article's list). Conditions: read-out: IC50 for nAChRs: α7 (chicken); cited from earlier work.
Assay [3] has as its target T2, ELIC (Dickeya chrysanthemi, UniProt P0C7B7).
T2 construct: DNA encoding ELIC and a T7 promoter was inserted into the pCMV-mGFP Cterm S11 NeoKan (Theranostech) vector; expressed in transfected cells; host or cells: Xenopus laevis oocytes (cRNA injection)
In words: Two-electrode voltage clamp inhibition of wild-type ELIC expressed in Xenopus laevis oocytes. Format: cell-based, Erwinia chrysanthemi. From the text:
The scale bars are 0.2 μA (vertical) and 30s (horizontal). The data were normalized to the current at EC20 in the absence of anesthetics and fit to the Hill equation (solid lines, n ≥ 6) for the volatile (b) and intravenous (c) general anesthetics. […] The data are reported as the mean ± SEM and error bars less than the symbol size are not visible.
Site-directed mutagenesis of ELIC was introduced with the QuickChange Lightning Kit (Agilent). DNA encoding ELIC and a T7 promoter was inserted into the pCMV-mGFP Cterm S11 NeoKan (Theranostech) vector. Capped complementary RNA was transcribed with the mMessage mMachine T7 kit (Ambion), purified with the RNeasy kit (Qiagen), injected (10–25 ng) into Xenopus laevis oocytes (stages 5–6), which were maintained at 18 °C in a modified Barth’s solution[40]. […] Oocytes were clamped to a holding potential of −40 to −60 mV. The recording solutions contained 130 mM NaCl, 0.1 mM CaCl2, 10 mM HEPES, pH 7.0 as well as desired concentrations of agonist and anesthetics. Data were collected and processed using Clampex 10 (Molecular Devices). Non-linear regressions were performed using Prism software (Graphpad).
For measuring anesthetic inhibitory effects, saturated solutions of the volatile anesthetics isoflurane, sevoflurane, and halothane were prepared in the recording solution by stirring overnight at 4 °C. Concentrations of these anesthetics in the recording chamber were calibrated using ^19F NMR[63]. The intravenous anesthetics, propofol, etomidate, and thiopental, were dissolved directly into the recording solution.

The subject of assay [4] is α4β4 nAChR. More on the design: method as in ref 11 (a number printed in a supplementary file, which may have a reference list of its own: not looked up in the article's list). Conditions: read-out: IC50 for nAChRs: α4β4 (chicken); cited from earlier work.
In assay [5] the test system is α4β2 nAChR. Conditions: read-out: IC50 for nAChRs: α4β2 (rat); cited from earlier work.
Assay [6] deals with α2β4 nAChR. Conditions: cited from earlier work.
Assay [7] has as its system α4β2 nAChR. Particulars: read-out: IC50 for nAChRs: α4β2 (human); cited from earlier work.
For assay [8], the system named is α3β4 nAChR. More on the design: method as in ref 8 (a number printed in a supplementary file, which may have a reference list of its own: not looked up in the article's list). Conditions: read-out: IC50 for nAChRs: α3β4; cited from earlier work.
The target in assay [9] is T2, ELIC. In words: Isoflurane pre-incubation: onset of agonist-induced ELIC current. It counts as cell-based, Erwinia chrysanthemi. Conditions: mean ± SEM, n = 15. How it is done:
Since isoflurane binds to the pore of the resting state of ELIC (Fig. 2a), pre-incubating the oocytes expressing ELIC with isoflurane for a short period of time is expected to enhance the inhibitory effect.
Figure 4 Isoflurane binding stabilized the closed channel. (a) A representative trace showing that pre-incubation with isoflurane (red arrows) slowed the onset rate and increased the maximum inhibition. The vertical and horizontal scale bars represent 20 μA and 30 seconds, representatively. (b) The onset rate of the channel current can be fitted to a single exponential decay function, I = Imax (1−e^(−t/τ)). The fitting results for the onset rate τ and Imax for channels pre-incubated with isoflurane (red line) are 1.73 ± 0.04 s and −0.33 ± 0.02 μA, respectively; and 1.25 ± 0.05 s and −0.41 ± 0.03 μA, respectively, for channels without isoflurane pre-incubation (green line). The fitting parameters are expressed as mean ± SEM (n = 15).
Site-directed mutagenesis of ELIC was introduced with the QuickChange Lightning Kit (Agilent). DNA encoding ELIC and a T7 promoter was inserted into the pCMV-mGFP Cterm S11 NeoKan (Theranostech) vector. Capped complementary RNA was transcribed with the mMessage mMachine T7 kit (Ambion), purified with the RNeasy kit (Qiagen), injected (10–25 ng) into Xenopus laevis oocytes (stages 5–6), which were maintained at 18 °C in a modified Barth’s solution[40]. All procedures involving Xenopus laevis oocytes were approved by the University of Pittsburgh Institutional Animal Care and Use Committee (IACUC), Protocol 14114745. Two-electrode voltage clamp experiments were performed 16–40 hrs after injection using an Oocyte Clamp OC-725C amplifier (Warner Instruments), Digidata 1440A digitizer (Axon Instruments), and a 20 μl chamber (Automate Scientific). Oocytes were clamped to a holding potential of −40 to −60 mV. The recording solutions contained 130 mM NaCl, 0.1 mM CaCl2, 10 mM HEPES, pH 7.0 as well as desired concentrations of agonist and anesthetics. Data were collected and processed using Clampex 10 (Molecular Devices). Non-linear regressions were performed using Prism software (Graphpad).

Assay [10] addresses T3, ELIC T237A mutant (Dickeya chrysanthemi, UniProt P0C7B7, T236A).
T3 construct: DNA encoding ELIC and a T7 promoter was inserted into the pCMV-mGFP Cterm S11 NeoKan (Theranostech) vector; expressed in transfected cells; host or cells: Xenopus laevis oocytes (cRNA injection)
T3 sequence (P0C7B7 1-321 T236A): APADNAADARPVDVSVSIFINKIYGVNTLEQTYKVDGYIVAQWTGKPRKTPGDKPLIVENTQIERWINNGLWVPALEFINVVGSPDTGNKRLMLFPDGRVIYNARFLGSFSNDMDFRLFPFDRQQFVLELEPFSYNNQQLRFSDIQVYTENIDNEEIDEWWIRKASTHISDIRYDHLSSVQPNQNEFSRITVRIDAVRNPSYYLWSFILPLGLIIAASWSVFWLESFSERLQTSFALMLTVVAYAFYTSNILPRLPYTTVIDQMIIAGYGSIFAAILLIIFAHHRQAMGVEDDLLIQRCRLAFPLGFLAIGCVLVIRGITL
The assay is described as follows: Two-electrode voltage clamp of T237A (6′) ELIC mutant in Xenopus laevis oocytes. It counts as cell-based, Erwinia chrysanthemi.
Description: as §1
Figure 3 Functional evidence of isoflurane binding to the pore. (a) Representative current traces for isoflurane inhibition of WT and two mutants: T237(6′)A; and A244(13′)T. The scale bars are 0.1 μA (vertical) and 30s (horizontal). (b) Agonist propylamine (PPA) concentration-response curves for WT and two mutants indicated in (a). The data were normalized to the maximum current and fit to the Hill equation (solid lines, n ≥ 5). […]
On the technique in general: In two-electrode clamp one electrode senses voltage and the other passes current.

The conditions of assay [11]: anesthetizing concentrations in animals; read-out: Clinical EC50; cited from earlier work.
In assay [12] the test system is α4β2 nAChR. More on the design: method as in ref 6 (a number printed in a supplementary file, which may have a reference list of its own: not looked up in the article's list). Conditions: read-out: IC50 for nAChRs: α4β2 (chicken); cited from earlier work.
For assay [13], the system named is α7 nAChR. More on the design: method as in ref 16 (a number printed in a supplementary file, which may have a reference list of its own: not looked up in the article's list). Particulars: read-out: IC50 for nAChRs: α7 (human); cited from earlier work.
Where [14] appears, read: WT ELIC, agonist propylamine (PPA) at EC20, oocytes, mean ± SEM, n ≥ 6, read-out: IC50 for ELIC.
The mark [15] stands for this setting: channels pre-incubated with isoflurane, single exponential fit.
The mark [16] stands for this setting: channels without isoflurane pre-incubation.

Where two headings read alike, the source gives them in different places.

The text below walks through data of PMC4561908, “Direct Pore Binding as a Mechanism for Isoflurane Inhibition of the Pentameric Ligand-gated Ion Channel ELIC” (Scientific Reports, 2015).

The IC50 is the concentration needed to halve the response being measured. What is called EC50 is the midpoint of the concentration-response curve.

T1 sequence (P0C7B7 whole entry A243T): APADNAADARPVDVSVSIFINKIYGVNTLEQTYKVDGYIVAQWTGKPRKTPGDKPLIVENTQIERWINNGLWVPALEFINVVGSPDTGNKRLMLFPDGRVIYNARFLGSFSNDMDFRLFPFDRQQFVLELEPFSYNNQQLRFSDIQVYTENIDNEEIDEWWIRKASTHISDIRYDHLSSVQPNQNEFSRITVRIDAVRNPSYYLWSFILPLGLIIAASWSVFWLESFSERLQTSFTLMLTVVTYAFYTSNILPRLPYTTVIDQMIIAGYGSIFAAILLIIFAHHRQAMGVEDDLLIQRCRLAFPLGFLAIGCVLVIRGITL
T2 sequence (P0C7B7 whole entry): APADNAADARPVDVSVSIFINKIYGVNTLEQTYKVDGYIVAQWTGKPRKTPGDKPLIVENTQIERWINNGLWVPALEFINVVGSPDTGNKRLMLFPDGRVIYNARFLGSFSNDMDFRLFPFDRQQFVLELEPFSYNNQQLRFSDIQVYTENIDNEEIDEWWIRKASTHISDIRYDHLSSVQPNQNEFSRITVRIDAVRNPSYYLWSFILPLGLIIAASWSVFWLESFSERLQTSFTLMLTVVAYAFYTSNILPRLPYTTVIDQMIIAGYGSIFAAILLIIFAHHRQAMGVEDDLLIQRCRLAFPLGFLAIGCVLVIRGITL

Take `CCCN` [PPA, propylamine]: the “EC50 of agonist PPA compared with WT ELIC” value in assay [1] (A244T mutant vs wild-type ELIC) is reported as “nearly identical”.
Take `CCOC(=O)c1cncn1[C@H](C)c1ccccc1` [etomidate]: the IC50 in [2] is 25.3 µM; in assay [3], 11.2 ± 1.1 µM; in [4], 33 µM; in assay [5], 49 µM.
As to `FC(F)(F)C(Cl)Br` (centres unmarked) [halothane], the half-inhibitory concentration (IC50) in [6] (read-out: IC50 for nAChRs: α2β4 (human)) is 47 µM; in assay [3] (setting [14]), 40 ± 4.5 µM; in assay [7], 27 µM.
As to `FC(F)OC(Cl)C(F)(F)F` (centres unmarked) [isoflurane], the IC50 is 25 µM in assay [6] (read-out: IC50 for nAChRs: α2β4); 61.7 ± 5.5 µM in assay [1]; 56 µM in assay [8]; 21.9 ± 1.5 µM in assay [3] (setting [14]); 525 ± 58.2 µM in assay [10] (T237A (6′) mutant, PPA at EC20, mean ± SEM, n ≥ 6, read-out: IC50 of isoflurane, T237A channel); 82 µM in [7]. Further, the entries for the “Increase of isoflurane IC50 relative to the WT channel” value in assay [1] (A244T vs WT ELIC) and in [10] (T237A vs WT ELIC) were about 3 fold and “more than an order of magnitude”, respectively. Further, the “Imax of channel current” value in assay [9] (setting [15]) was −0.33 ± 0.02 μA; in assay [9] (setting [16]), −0.41 ± 0.03 μA. The “Onset rate τ of channel current” value in assay [9] (setting [15]) came to 1.73 ± 0.04 s; in assay [9] (setting [16]), 1.25 ± 0.05 s.
`CC(C)c1cccc(C(C)C)c1O` [propofol]: the IC50 in assay [3] (setting [14]) was 11.9 ± 1.1 µM; in assay [5], 4.5 µM; in assay [12], 19 µM. Further, the EC50 in assay [11] was 1.5 µM.
For `FCOC(C(F)(F)F)C(F)(F)F` [sevoflurane], the IC50 in [3] (setting [14]) was determined as 23.2 ± 1.6 µM.
`CCCC(C)C1(CC)C(=O)NC(=S)NC1=O` (centres unmarked) [thiopental]: the IC50 in [3] is 42.8 ± 1.1 µM; in [13], 40.6 µM; in assay [5] it was 26 µM. Also, in assay [11], the EC50 is 25 µM.
